Experimental data published in patent US11179372B2, “Isoxazoline solution containing vitamin E for use with sanitized drinking water” (Intervet Inc., priority 2015, dated 2021).

Assays:
[1] = Residues and withdrawal time in treated birds; assay type: in vivo; conditions: treated layer birds, oral uptake
[2] = Tolerance of Fluralaner in laying hens (Example 1); assay type: in vivo, chickens; conditions: 0.5-2 mg/kg BW via medicated drinking water
Experimental: Experimental animals were chickens, particularly laying hens of about 30 weeks old. These were housed in a standard poultry house. Apparently healthy birds were assigned in a random way to treatment groups kept separately, and labelled individually. The birds were kept under natural light, and were given several days for acclimatization; drinking water consumption in each group was measured on three days prior to administration to calculate the average daily water consumption. Medicated water was prepared by diluting a concentrated Fluralaner solution (10 mg/ml) to the desired concentration of Fluralaner in regular tap water (hypochlorite <0.5 ppm). […]
The dose to be administered was calculated based on average body weights of each treatment group, measured one day before treatment (day −1, day 6). A concentrated Fluralaner solution was diluted in the drinking water to prepare medicated drinking water ready for consumption, via the following dosing regimen: • The volume of medicated water offered per group on day 0 (group D also on day 7) was approximately 50% of the calculated mean daily water intake measured previously in the respective group in order to ensure consumption of the full dose. • Once all medicated water was consumed the other 50% volume of the mean daily water intake was supplied as unmedicated tap water in the same drinker.

[3] = Accelerated stability testing of pharmaceutical composition comprising a protector; assay type: physicochemical; conditions: with alpha-tocopherol; up to 8 months; 2-8° C., 30° C./65% RH, 40° C./75% RH, 50° C.
Experimental: Similar to the experiments described in Example 3 above, where the effect of water quality on Fluralaner-containing medicated drinking water was tested; here samples of the pharmaceutical composition were tested for an effect of the addition of a protector, on their stability during prolonged storage.
To test the long term stability of the pharmaceutical composition with a protector, some samples were stored under conditions of accelerated ageing. Samples of the pharmaceutical composition with or without one of the protectors, were filled out in portions of 7 gram each, in 10 ml glass vials, sealed with rubber stoppers, and stored under different conditions: 2-8° C.; 30° C./65% RH; 40° C./75% RH, and 50° C. […]

[4] = Effect of drinking water quality on degradation of Fluralaner; assay type: physicochemical
Experimental: To assess what caused the degradation of Fluralaner in dilution in drinking water, the impact of different types and qualities of drinking water was tested. This was done by incubation of samples containing 1 μg/g of Fluralaner, in water that contained different ions at increased concentrations from average normal conditions. Samples were mixed and incubated for 7 days, either at 2-8° C., or at 40° C./75% relative humidity (RH). Fluralaner contents were measured before and after incubations. Isoxazolines such as Fluralaner can be detected and quantified by fast liquid chromatography methods, using standard equipment and procedures, such as UHPLC. Standard liquids for washing and as carrier are e.g.: LC grade Acetonitrile, Methanol, Formic acid, and MiliQ™ water can be prepared in house. Fluralaner is characterised based on its UV spectrum and retention profile, and quantified in reference to dilutions of standards. LoQ=Limit of Quantitation, the lowest concentration at which the analyte can reliably be detected. For Fluralaner by UHPLC the LoQ is 100 ng/ml.

[5] = 1 μg/g Fluralaner in Al^3+ water at 1 mg/l
[6] = 1 μg/g Fluralaner in ClO^- water at 0.5 ppm
[7] = 1 μg/g Fluralaner in ClO^- water at 5 ppm
[8] = 1 μg/g Fluralaner in ClO^- water at 50 ppm
[9] = 1 μg/g Fluralaner in ClO^- water at 150 ppm
[10] = 1 μg/g Fluralaner in ClO^- water at 250 ppm
[11] = 1 μg/g Fluralaner in Cl^- water at 300 mg/l
[12] = 1 μg/g Fluralaner in Cu^2+ water at 10 mg/l
[13] = 1 μg/g Fluralaner in Fe^3+ water at 1 mg/l
[14] = 1 μg/g Fluralaner in Hard water/high pH (500 mg CaCl2•2H2O/l; pH 8.1)
[15] = 1 μg/g Fluralaner in K^+ water at 300 mg/l
[16] = 1 μg/g Fluralaner in NO3^- water at 100 mg/l
[17] = 1 μg/g Fluralaner in Na^+ water at 300 mg/l
[18] = 1 μg/g Fluralaner in PO4^- water at 100 mg/l
[19] = 1 μg/g Fluralaner in Purified water
[20] = 1 μg/g Fluralaner in Soft water/low pH (30 mg CaCl2•2H2O/l; pH 6.2)
[21] = 1 μg/g Fluralaner in Water at pH = 4
[22] = 1 μg/g Fluralaner in Water at pH = 10

Cc1cc(C2=NOC(c3cc(Cl)cc(Cl)c3)(C(F)(F)F)C2)ccc1C(=O)NCC(=O)NCC(F)(F)F (stereo not drawn) [Fluralaner]
Residue levels in eggs [1]: far below the MRL value
Tolerance in the hens [2]: well tolerated
Level of Fluralaner in pharmaceutical composition on storage [3]: no significant reduction
Fluralaner content after 7 days at 2-8° C. [4, 5]: 0.99 µg/g
Fluralaner content after 7 days at 40° C./75% RH [4, 5]: 1.01 µg/g
Fluralaner content after 7 days at 2-8° C. [4, 6]: 0.99 µg/g
Fluralaner content after 7 days at 40° C./75% RH [4, 6]: 0.82 µg/g
Fluralaner content after 7 days at 2-8° C. [4, 7]: <LOQ
Fluralaner content after 7 days at 40° C./75% RH [4, 7]: <LOQ
Fluralaner content after 7 days at 2-8° C. [4, 8]: <LOQ
Fluralaner content after 7 days at 40° C./75% RH [4, 8]: <LOQ
Fluralaner content after 7 days at 2-8° C. [4, 9]: <LOQ
Fluralaner content after 7 days at 40° C./75% RH [4, 9]: <LOQ
Fluralaner content after 7 days at 2-8° C. [4, 10]: Not detected
Fluralaner content after 7 days at 40° C./75% RH [4, 10]: Not detected
Fluralaner content after 7 days at 2-8° C. [4, 11]: 0.97 µg/g
Fluralaner content after 7 days at 40° C./75% RH [4, 11]: 0.98 µg/g
Fluralaner content after 7 days at 2-8° C. [4, 12]: 0.90 µg/g
Fluralaner content after 7 days at 40° C./75% RH [4, 12]: 0.78 µg/g
Fluralaner content after 7 days at 2-8° C. [4, 13]: 0.91 µg/g
Fluralaner content after 7 days at 40° C./75% RH [4, 13]: 0.89 µg/g
Fluralaner content after 7 days at 2-8° C. [4, 14]: 0.92 µg/g
Fluralaner content after 7 days at 40° C./75% RH [4, 14]: 0.96 µg/g
Fluralaner content after 7 days at 2-8° C. [4, 15]: 0.90 µg/g
Fluralaner content after 7 days at 40° C./75% RH [4, 15]: 0.80 µg/g
Fluralaner content after 7 days at 2-8° C. [4, 16]: 0.92 µg/g
Fluralaner content after 7 days at 40° C./75% RH [4, 16]: 0.93 µg/g
Fluralaner content after 7 days at 2-8° C. [4, 17]: 0.85 µg/g
Fluralaner content after 7 days at 40° C./75% RH [4, 17]: 0.84 µg/g
Fluralaner content after 7 days at 2-8° C. [4, 18]: 1.14 µg/g
Fluralaner content after 7 days at 40° C./75% RH [4, 18]: 1.15 µg/g
Fluralaner content after 7 days at 2-8° C. [4, 19]: 0.90 µg/g
Fluralaner content after 7 days at 40° C./75% RH [4, 19]: 0.92 µg/g
Fluralaner content after 7 days at 2-8° C. [4, 20]: 0.88 µg/g
Fluralaner content after 7 days at 40° C./75% RH [4, 20]: 0.89 µg/g
Fluralaner content after 7 days at 2-8° C. [4, 21]: 1.23 µg/g
Fluralaner content after 7 days at 40° C./75% RH [4, 21]: 1.26 µg/g
Fluralaner content after 7 days at 2-8° C. [4, 22]: 0.78 µg/g
Fluralaner content after 7 days at 40° C./75% RH [4, 22]: 0.79 µg/g
